Test results taken from patent US11186583B2, “5-alkylthio-7-[(4-arylbenzyl)amino]-1(2)H-pyrazolo[4,3-d]pyrimidines for treatment of lymphoma” (UNIVERZITA PALACKEHO V OLOMOUCI, priority 2018, dated 2021).
Read-outs that look alike come from different tables or passages of the source. Blank lines part the entries; values can stand above or below the compound they belong to.

Assays:
CDK2/Cyclin E = molecular target: T1, CDK2/Cyclin E (Homo sapiens, UniProt P24941); test: CDK2/Cyclin E kinase inhibition, [γ-33P]ATP, histone H1; format: biochemical
T1 construct: made in house; host or cells: Sf9 insect cells (baculovirus)
Description: CDK2/Cyclin E and CDK1/Cyclin B kinases were produced in Sf9 insect cells via baculoviral infection and purified on a Ni-NTA column (Qiagen). CDK4/Cyclin D1, CDK5/p35NCK, CDK7/Cyclin H/MAT1 and CDK9/Cyclin T1 were purchased from ProQinase GmbH. […] The reactions were stopped by adding 5 mL of 3% aq. H3PO4. Aliquots were spotted onto P-81 phosphocellulose (Whatman), washed 3 times with 0.5% aq. H3PO4 and finally air-dried. Kinase inhibition was quantified using a FLA-7000 digital image analyzer (Fujifilm). The concentration of the test compounds required to decrease the CDK activity by 50% was determined from dose response curves and designated as IC50.

[1] = system: HT (diffuse large B-cell lymphoma, subtype—germinal center B-cell); test: MTT cytotoxicity assay, HT lymphoma cell line; format: cell-based; details: Homo sapiens, 72 h, HT cells, three days, read-out: Lymphoma cell lines GI50, HT
Source text: (§1) Cytotoxicity of the compounds is the major property determining their anti-lymphoma efficacy in vitro. One of the parameters used, as the basis for cytotoxicity assays, is the metabolic activity of viable cells. For example 2, a microtiter assay, which uses (3-(4,5-dimethylthiazol-2-yl)-2,5-diphenyltetrazolium bromide (MTT), is widely used to quantitate cell proliferation and cytotoxicity. This assay is widely used in drug screening programs and in chemosensitivity testing. Because only metabolically active living cells reduce MTT to correspond purple formazan dye, these assays detect viable cells exclusively. The quantity of reduced MTT corresponds to the number of vital cells in the culture.
(§2) The compounds were assayed using the following lymphoma cell lines: HT (diffuse large B-cell lymphoma, subtype—germinal center B-cell), OCI-LY2 (diffuse large B-cell lymphoma, subtype—germinal center B-cell), MINO (mantle cell lymphoma). All cell lines were grown in RPMI medium supplemented with fetal bovine serum and glutamine and maintained at 37° C. in a humidified atmosphere with 5% CO2. For cytotoxicity assays, 5000-10000 cells were seeded into each well of 96 well plate, allowed to stabilize for at least 8 h and then tested compounds were added at various concentrations ranging from 100 to 0.01 μM in triplicates. After three days, MTT solution (5 mg/ml; Sigma, St. Louis, USA) was added to cells and medium was replaced with DMSO after five hours. The absorbance was measured at 620 nm by employing a microplate reader. MTT assays were repeated 3 times for each drug application and untreated cells were used as reference. The GI50 values, drug concentrations lethal to 50% of the cells, were calculated from the obtained dose response curves.

[2] = system: OCI-LY2 (diffuse large B-cell lymphoma, subtype—germinal center B-cell); test: MTT cytotoxicity assay, OCI-LY2 lymphoma cell line; format: cell-based; details: 72 h, OCI-LY2 cells, three days, read-out: Lymphoma cell lines GI50, OCI-LY2
Source text: as §1, §2

[3] = system: MINO (mantle cell lymphoma); test: MTT cytotoxicity assay, MINO lymphoma cell line; format: cell-based; details: Homo sapiens, 72 h, MINO cells, three days, read-out: Lymphoma cell lines GI50, MINO
Source text: as §1, §2

[4] = Table 4, read-out: CDK2/E inhibition IC50

IC50 (CDK2/Cyclin E; [4]): 6 nM
Structure (SMILES): CC(C)c1n[nH]c2c(NCc3ccc(-c4cnccn4)cc3)nc(SCCO)nc12 [Compound 4.133, 5-(2-Hydroxy-1-ethyl)thio-3-isopropyl-7-[4-(pyrazin-2-yl)benzyl]amino-1(2)H-pyrazolo[4,3-d]pyrimidin]

IC50 (CDK2/Cyclin E; Table 3, read-out: Enzyme inhibition IC50 CDK2/E): 320 nM
Structure (SMILES): CC(C)c1n[nH]c2c(NCc3ccc(-c4ccccn4)cc3)nc(SCCS)nc12 [Compound 4.35, 5-(2-sulfanylethyl)thio-3-isopropyl-7-[4-(2-pyridyl)benzyl]amino-1(2)H-pyrazolo[4,3-d]pyrimidine]

IC50 (CDK2/Cyclin E; [4]): 3 nM
Structure (SMILES): CC(C)c1[nH]nc2c(NCc3ccc(-n4cccn4)cc3)nc(SCCO)nc12 [Compound 4.80, 5-(2-Hydroxy-1-ethyl)thio-3-isopropyl-7-[4-(pyrazol-1-yl)benzyl]amino-1(2)H-pyrazolo[4,3-d]pyrimidin]

IC50 (CDK2/Cyclin E; [4]): 10 nM
Structure (SMILES): CC(C)c1n[nH]c2c(NCc3ccc(-n4ccnc4)cc3)nc(SCCO)nc12 [Compound 4.50, 5-(2-Hydroxy-1-ethyl)thio-3-isopropyl-7-[4-(imidazol-1-yl)benzyl]amino-1(2)H-pyrazolo[4,3-d]pyrimidine]

IC50 (CDK2/Cyclin E; [4]): 37 nM
Structure (SMILES): CC(O)CSc1nc(NCc2ccc(-n3cccn3)cc2)c2n[nH]c(C(C)C)c2n1 (stereo not shown) [Compound 4.81, 5-(2-Hydroxy-1-propyl)thio-3-isopropyl-7-[4-(pyrazol-1-yl)benzyl]amino-1(2)H-pyrazolo[4,3-d]pyrimidin]

IC50 (CDK2/Cyclin E; [4]): 5 nM
Structure (SMILES): CC(C)c1n[nH]c2c(NCc3ccc(-c4c[nH]cn4)cc3)nc(SCCO)nc12 [Compound 4.109, 5-(2-Hydroxy-1-ethyl)thio-3-isopropyl-7-[4-(imidazol-4-yl)benzyl]amino-1(2)H-pyrazolo[4,3-d]pyrimidin]

IC50 (CDK2/Cyclin E; [4]): 11 nM
Structure (SMILES): CC(C)c1[nH]nc2c(NCc3ccc(-n4cccn4)cc3)nc(SCC(C)(C)N)nc12 [Compound 4.90, 5-(2-Amino-2-methyl-1-propyl)thio-3-isopropyl-7-[4-(pyrazol-1-yl)benzyl]amino-1(2)H-pyrazolo[4,3-d]pyrimidin]

IC50 (CDK2/Cyclin E; [4]): 5 nM
Structure (SMILES): CC(C)c1n[nH]c2c(NCc3ccc(-n4ccnc4)cc3)nc(SCCN)nc12 [Compound 4.57, 5-(2-Amino-1-ethyl)thio-3-isopropyl-7-[4-(imidazol-1-yl)benzyl]amino-1(2)H-pyrazolo[4,3-d]pyrimidin]

IC50 (CDK2/Cyclin E; [4]): 60 nM
Structure (SMILES): CC(C)c1[nH]nc2c(NCc3ccc(-n4cccn4)cc3)nc(SCCCN(C)C)nc12 [Compound 4.96]

IC50 (CDK2/Cyclin E; [4]): 6 nM
Structure (SMILES): CC(C)c1[nH]nc2c(NCc3ccc(-n4cccn4)cc3)nc(SCC(O)CO)nc12 (stereo not shown) [Compound 4.94, 5-(2,3-Dihydroxy-1-propyl)thio-3-isopropyl-7-[4-(pyrazol-1-yl)benzyl]amino-1(2)H-pyrazolo[4,3-d]pyrimidin]

Structure (SMILES): CC(C)c1n[nH]c2c(NCc3ccc(-c4ccccn4)cc3)nc(SCCCN(C)C)nc12 [Compound 4.20, 5[3-(Dimethylamino)-1-propyl]thio-3-isopropyl-7-[4-(2-pyridyl)benzyl]amino-1(2)H-pyrazolo[4,3-d]pyrimidine]
GI50 [1]: 105 nM | GI50 [2]: 109 nM | GI50 [3]: 76 nM

Structure (SMILES): CC(=O)NCCSc1nc(NCc2ccc(-c3ccccn3)cc2)c2[nH]nc(C(C)C)c2n1 [Compound 4.12, 5-(2-Acetylamino-1-ethyl)thio-3-isopropyl-7-[4-(2-pyridyl)benzyl]amino-1(2)H-pyrazolo[4,3-d]pyrimidine]
GI50 [1]: 71 nM | GI50 [2]: 54 nM | GI50 [3]: 42 nM

Structure (SMILES): CC(C)c1n[nH]c2c(NCc3ccc(-c4ccccn4)cc3)nc(SC3CCCCC3O)nc12 (stereo not shown) [Compound 4.14, 5-(2-Hydroxycyclohexyl1-yl)thio-3-isopropyl-7-[4-(2-pyridyl)benzyl]amino-1(2)H-pyrazolo[4,3-d]pyrimidine]
GI50 [1]: 636 nM | GI50 [2]: 680 nM | GI50 [3]: 530 nM

Structure (SMILES): CC(C)c1n[nH]c2c(NCc3ccc(-c4ccccn4)cc3)nc(SCCC(N)=O)nc12 [Compound 4.6, 5-(2-Carbamoyl-1-ethyl)thio-3-isopropyl-7-[4-(2-pyridyl)benzyl]amino-1(2)H-pyrazolo[4,3-d]pyrimidine]
GI50 [1]: 120 nM | GI50 [2]: 84 nM | GI50 [3]: 81 nM
